Data published in patent publication US7250410B2, “Cyclic nucleotide phosphodiesterase inhibitors, preparation and uses thereof” (Via Pharmaceuticals, Inc., priority 2001, dated 2007).
Where “and” joins values, the source holds several entries; their conditions need not be identical. Identical values can stand only once.

Tests used:
TNFα = TNFα production by LPS-activated mononuclear cells from venous blood (ELISA); assay type: cell-based; settings: Homo sapiens
Description: Compounds according to the invention were assessed for anti-inflammatory properties on mononuclear cells from venous blood of healthy donors (n=4), by a protocol approved by the Alsace No. 1 Ethics Committee. More specifically, the cells were incubated for 24 hours in 24-well plates in the presence of the test compound, after activation by Salmonella Abortis Equi lipopolysaccharide (LPS) (5 pg/ml) (cf. De Groote et al., Cytokine 4, 1992, 239). After incubation, TNFα concentrations were determined in the culture supernatant by an ELISA method (Antibody Solutions, Half Moon Bay, Calif., USA).

PDE5 = target: T1, PDE5 (Bos taurus, UniProt Q28156); assay: Selectivity: inhibition of PDE5, radioenzymatic phosphodiesterase assay; assay type: biochemical, bovine; settings: Table 4 Selectivity; compound at 10 μM; read-out: PDE5 percentage inhibition at 10 μM
T1 construct: localize the different enzymes PDE1, PDE3, PDE4 and PDE5, which were aliquoted and frozen; from tissue; host or cells: bovine aortic media (vascular smooth muscle), DEAE-Sephacel fraction
Description: (§1) A 3 g segment of bovine aortic media cut into pieces with scissors was homogenized with an ultra-turrax then a potter glass/glass homogenizer in 7 volumes by weight of buffer A containing a protease inhibitor cocktail (20 mM Tris-HCl, 0.25 M saccharose, 2 mM magnesium acetate, 1 mM dithiothreitol, 5 mM EGTA, 2000 U/ml aprotinin, 10 mg/l leupeptin and 10 mg/l soya trypsic inhibitor). The homogenizate was centrifuged at 105,000 g for 1 hour. The supernatant was loaded on a DEAE-Sephacel column (15×1.6 cm) pre-equilibrated with buffer B (buffer A without the saccharose, EGTA and protease inhibitors). The column was washed until there was no detectable absorption at 280 nm, then eluted with a linear gradient of NaCl (0–0.5 M) in buffer B. 3-ml fractions were collected and enzyme activity was determined under the conditions described hereinafter to localize the different enzymes PDE1, PDE3, PDE4 and PDE5, which were aliquoted and frozen at −80° C. (Lugnier et al., Biochem. Phamacol., 35 (1986) 1746–1751). PDE2 was prepared from bovine endothelial cells by the same methods (Lugnier and Schini, Biochem. Pharmacol. 1990, 39; 75–84).
(§2) Cyclic nucleotide phosphodiesterase activity was determined by a radioenzymatic method using tritium-labelled cyclic GMP or AMP (1 μM) as substrate (Lugnier et al., 1986). ^3H-labelled adenosine or guanosine monophosphate formed by hydrolysis of the radiolabelled cyclic nucleotide was then converted to ^3H-labelled adenosine or guanosine in a second reaction with […] in excess. The nucleoside formed was separated from the nucleotides by anion exchange chromatography. Nucleoside radioactivity was determined by liquid scintillation counting. Enzymatic incubations were carried out under conditions allowing no more than 15% hydrolysis of the substrate; each point was performed in duplicate.
(§3) The activity of the compounds was evaluated on other phosphodiesterase isoforms, particularly basal state or calmodulin-activated PDE1 from vascular smooth muscle, basal state or cyclic GMP-activated PDE2 from vascular endothelial cells, PDE3 and PDE5 from vascular smooth muscle.
(§4) The results obtained are presented in Table 4 hereinafter and are expressed as the percentage inhibition of enzymatic activity produced by […] of the tested compound.

PDE2 = target: T2, PDE2 (Bos taurus, UniProt P14099); assay: Selectivity: inhibition of PDE2, radioenzymatic phosphodiesterase assay; assay type: biochemical, bovine; settings: Table 4 Selectivity; compound at 10 μM; read-out: PDE2 percentage inhibition at 10 μM
T2 construct: PDE2 was prepared from bovine endothelial cells by the same methods; endogenous in cells; host or cells: bovine vascular endothelial cells, DEAE-Sephacel fraction
T2 sequence (P14099 1-921): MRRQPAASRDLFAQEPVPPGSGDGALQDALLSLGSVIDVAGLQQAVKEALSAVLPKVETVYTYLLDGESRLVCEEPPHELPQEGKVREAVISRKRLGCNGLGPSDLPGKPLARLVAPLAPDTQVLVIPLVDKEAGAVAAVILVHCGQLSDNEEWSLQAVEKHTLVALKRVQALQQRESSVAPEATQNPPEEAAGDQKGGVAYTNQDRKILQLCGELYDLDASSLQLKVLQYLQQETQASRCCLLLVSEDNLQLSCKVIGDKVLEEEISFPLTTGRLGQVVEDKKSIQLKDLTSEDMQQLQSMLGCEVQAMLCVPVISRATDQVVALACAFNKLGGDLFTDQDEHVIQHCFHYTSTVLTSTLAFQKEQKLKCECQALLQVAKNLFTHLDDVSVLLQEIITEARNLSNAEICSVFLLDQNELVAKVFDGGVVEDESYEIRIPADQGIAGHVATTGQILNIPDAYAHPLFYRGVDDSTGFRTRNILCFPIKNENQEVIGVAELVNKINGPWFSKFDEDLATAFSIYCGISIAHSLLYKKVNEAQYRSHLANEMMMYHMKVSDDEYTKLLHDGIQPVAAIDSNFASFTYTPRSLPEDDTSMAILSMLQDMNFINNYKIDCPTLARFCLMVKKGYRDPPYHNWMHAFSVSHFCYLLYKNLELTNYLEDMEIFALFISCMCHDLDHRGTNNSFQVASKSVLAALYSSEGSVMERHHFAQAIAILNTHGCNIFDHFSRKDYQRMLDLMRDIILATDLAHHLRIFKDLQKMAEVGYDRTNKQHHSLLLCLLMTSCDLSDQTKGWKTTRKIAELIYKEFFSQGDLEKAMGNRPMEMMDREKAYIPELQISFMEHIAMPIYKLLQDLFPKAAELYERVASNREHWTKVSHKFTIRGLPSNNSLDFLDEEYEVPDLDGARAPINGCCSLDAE
Description: as §1, §2, §3, §4

PDE4 = assay: Inhibition of PDE4, radioenzymatic phosphodiesterase assay; assay type: biochemical, bovine
How it was run: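 PDE4 partially purified from bovine aortic media by 105,000 g centrifugation and anion-exchange chromatography with an NaCl gradient. Activity measured radioenzymatically: product nucleoside separated from nucleotides by anion exchange and counted by liquid scintillation.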

Compound	inhibition at 1 µM (TNFα; 24 h, read-out: inhibition of TNFα production)	inhibition at 10 µM (PDE5)	inhibition at 10 µM (PDE2)	IC50 (PDE4; Table 3, formula (II), 1 μM cyclic AMP)	IC50 (PDE4; Table 4 Selectivity)	IC50 (TNFα; read-out: anti-TNFα activity IC50)	IC50 (PDE4; Table 2, formula (XXII), 1 μM cyclic AMP)
CCOc1cc2c(cc1OC)C(c1ccccc1)=NCC(=O)N2C [IIda, 8-ethoxy-7-methoxy-1-methyl-5-phenyl-1,3-dihydro-2H-1,4-benzodiazepin-2-one]	100%	14%	7%	550 nM and 430 nM	500 nM	–	–
CCOc1cc2c(cc1OCC)C(c1ccccc1)=NCC(=O)N2 [XXIIag, 7,8-diethoxy-5-phenyl-1,3-dihydro-2H-1,4-benzodiazepin-2-one]	–	35%	17%	–	950 nM	100 to 1000 nM	950 nM
